For assay [1], the system named is Male albino Sprague-Dawley rats. Put plainly: Rat Social Interaction Test (SIT). Conditions: 5 mg/kg i.p., 1 hour prior to testing. The assay is classed as in vivo. The protocol:
Rats were allowed to acclimate to the animal care facility for 5 days and were housed singly for 5 days prior to testing. Animals were handled for 5 minutes per day. The design and procedure for the Social Interaction Test was carried out as previously described by Kennett, et al. (1997). On the test day, weight matched pairs of rats (± 5%), unfamiliar to each other, were given identical treatments and returned to their home cages. Animals were randomly divided into 5 treatment groups, with 5 pairs per group, and were given one of the following i.p. treatments: Example 92 (10, 30 or 100 mg/kg), vehicle (1 ml/kg) or chlordiazepoxide (5 mg/kg). Dosing was 1 hour prior to testing. Rats were subsequently placed in a white perspex test box or arena (54 x 37 x 26 cm), whose floor was divided up into 24 equal squares, for 15 minutes. An air conditioner was used to generate background noise and to keep the room at approximately 74°F. All sessions were videotaped using a JVC camcorder (model GR-SZ1, Elmwood Park, NJ) with either TDK (HG ultimate brand) or Sony 30 minute videocassettes. All sessions were conducted between 1:00 - 4:30 P.M. Active social interaction, defined as grooming, sniffing, biting, boxing, wrestling, following and crawling over or under, was scored using a stopwatch (Sportsline model no. 226, 1/100 sec. discriminability). The number of episodes of rearing (animal completely raises up its body on its hind limbs), grooming (licking, biting, scratching of body), and face washing (i.e. hands are moved repeatedly over face), and number of squares crossed were scored. Passive social interaction (animals are lying beside or on top of each other) was not scored. All behaviors were assessed later by an observer who was blind as to the treatment of each pair. At the end of each test, the box was thoroughly wiped with moistened paper towels.
Male albino Sprague-Dawley rats (Taconic Farms, NY) were housed in pairs under a 12 hr light dark cycle (lights on at 0700 hrs.) with free access to food and water.
Example 92 was dissolved in 100% DMSO (Sigma Chemical Co., St. Louis, MO). Chlordiazepoxide (purchased from Sigma Chemical Co., St. Louis, MO) was dissolved in double distilled water. The vehicle consisted of 50% DMSO (v/v). All drug solutions were made up 10 minutes prior to injection and the solutions were discarded.
Example 34 was dissolved in 5% lactic acid, v/v. The vehicle consisted of 100% dimethylacetamide (DMA) and this was used to make up all drug solutions. All drug solutions were made up fresh each day and any unused solutions were discarded at the end of the test day. The volume of drug solution administered was 1 ml/kg.
The social interaction data (time interacting, rearing and squares crossed) were subjected to a randomized, one-way ANOVA and post hoc tests conducted using the Student-Newman-Keuls test. The data were subjected to a test of normality (Shapiro-Wilk test). The data were analyzed using the GBSTAT program, version 6.5 (Dynamics Microsystems, Inc., Silver Spring, MD, 1997). All data are presented as means ± S.E.M.

Assay [2] has the same test system. Put plainly: Rat Social Interaction Test (SIT). The assay is classed as in vivo.
Another assay has as its target T1, human GAL1 receptor (Homo sapiens, UniProt P47211).
T1 construct: expressed in transfected cells
T1 sequence (P47211 1-349): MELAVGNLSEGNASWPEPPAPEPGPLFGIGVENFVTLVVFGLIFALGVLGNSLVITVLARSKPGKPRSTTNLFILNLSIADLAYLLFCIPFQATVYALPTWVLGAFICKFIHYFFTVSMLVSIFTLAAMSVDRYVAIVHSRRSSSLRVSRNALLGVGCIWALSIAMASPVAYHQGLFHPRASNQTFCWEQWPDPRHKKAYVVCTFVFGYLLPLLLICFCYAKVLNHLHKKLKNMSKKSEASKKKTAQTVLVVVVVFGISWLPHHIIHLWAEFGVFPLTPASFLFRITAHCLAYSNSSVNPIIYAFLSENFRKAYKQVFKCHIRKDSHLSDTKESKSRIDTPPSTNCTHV
Put plainly: Radioligand binding at cloned human GAL1 receptor. Particulars: pyrimidines, read-out: Ki GalR1. As for the experimental part:
The binding properties of the pyrimidines of the present invention were evaluated at the cloned human galanin receptors, GAL1, GAL2, and GAL3, using protocols described herein. […]
LM(tk-) cells were stably transfected with the human GAL1 or GAL3 receptor. CHO cells were stably transfected with the human GAL2 receptor.
cDNAs for the human and rat GAL1, and human and rat GAL3 receptors were transfected with a G-418 resistant gene into the mouse fibroblast LM(tk-) cell line by a calcium phosphate transfection method (Cullen, 1987). Stably transfected cells were selected with G-418. Human and rat GAL2 receptors were similarly transfected into CHO cells.
Membranes were harvested from stably transfected LM(tk-) cells. Adherent cells were washed twice in ice-cold phosphate buffered saline (138 mM NaCl, 8.1 mM Na2HPO4, 2.5 mM KCl, 1.2 mM KH2PO4, 0.9 mM CaCl2, 0.5 mM MgCl2, pH 7.4) and lysed by sonication in ice-cold sonication buffer (20 mM Tris-HCl, 5 mM EDTA, pH 7.7). Large particles and debris were cleared by low speed centrifugation (200 x g, 5 min, 4°C). Membranes were collected from the supernatant fraction by centrifugation (32,000 x g, 18 min, 4°C), washed with ice-cold hypotonic buffer, and collected again by centrifugation (32,000 x g, 18 min, 4°C). The final membrane pellet was resuspended by sonication into a small volume of ice-cold binding buffer (-1 ml for every 5 plates: 10 mM NaCl, 20 mM HEPES, 0.22 mM KH2PO4, 1.26 mM CaCl2, 0.81 mM MgSO4, pH 7.4). Protein concentration was measured by the Bradford method (Bradford, 1976) using Bio-Rad Reagent, with bovine serum albumin as a standard. Membranes were held on ice for up to one hour and used fresh, or flash frozen and stored in liquid nitrogen. Membranes were prepared similarly from CHO cells.
Galanin Recentors: Binding assays were performed according to the following published methods: human GAL3 (PCT International Publication No. WO 98/15570), human GAL1 (PCT International Publication No. WO 95/2260), human GAL2 (PCT International Publication No. WO 97/26853).
Binding data were analyzed using nonlinear regression and statistical techniques available in the GraphPAD Prism package (San Diego, CA). Enzymatic assay data were derived from a standard curve of reference compound data.

Another assay has as its target T2, human GAL2 receptor (Homo sapiens, UniProt O43603).
T2 construct: expressed in transfected cells
T2 sequence (O43603 1-387): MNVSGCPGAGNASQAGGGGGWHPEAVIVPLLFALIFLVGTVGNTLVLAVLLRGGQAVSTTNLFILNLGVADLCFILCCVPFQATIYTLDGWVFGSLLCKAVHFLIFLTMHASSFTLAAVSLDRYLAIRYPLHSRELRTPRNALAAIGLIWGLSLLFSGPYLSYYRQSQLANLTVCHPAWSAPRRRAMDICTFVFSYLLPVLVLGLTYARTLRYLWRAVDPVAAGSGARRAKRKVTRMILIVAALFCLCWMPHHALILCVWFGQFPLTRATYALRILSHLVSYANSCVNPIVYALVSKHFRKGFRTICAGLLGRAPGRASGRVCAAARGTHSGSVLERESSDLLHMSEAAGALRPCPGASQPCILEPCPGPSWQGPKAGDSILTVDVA
Put plainly: Radioligand binding at cloned human GAL2 receptor. Conditions: pyrimidines, read-out: Ki GalR2. The method, boiled down: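 Membranes from CHO cells stably expressing human GAL2 and LM(tk-) cells stably expressing human GAL1, resuspended in binding buffer (10 mM NaCl, 20 mM HEPES, pH 7.4). Binding data fitted by nonlinear regression.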

A further assay addresses T3, human GAL3 receptor (Homo sapiens, UniProt O60755).
T3 construct: expressed in transfected cells
T3 sequence (O60755 1-368): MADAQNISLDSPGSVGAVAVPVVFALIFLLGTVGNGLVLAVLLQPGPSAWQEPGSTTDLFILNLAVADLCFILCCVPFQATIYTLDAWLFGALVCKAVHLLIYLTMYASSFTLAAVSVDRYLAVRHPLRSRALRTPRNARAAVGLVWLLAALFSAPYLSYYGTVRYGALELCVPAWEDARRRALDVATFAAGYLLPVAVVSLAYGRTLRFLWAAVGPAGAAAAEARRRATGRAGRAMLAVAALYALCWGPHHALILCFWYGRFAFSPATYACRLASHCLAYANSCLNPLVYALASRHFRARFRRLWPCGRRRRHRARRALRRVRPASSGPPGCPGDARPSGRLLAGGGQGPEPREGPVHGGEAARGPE
The assay is described as follows: Radioligand binding at cloned human GAL3 receptor. Particulars: pyrimidines, cloned human receptor; read-out: Ki GalR3. The method, boiled down:
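Compound vehicle, as final assay concentration, was 3% DMSO (indolones) or 1% ethanol/0.09% polypuronic acid F-127 (pyrimidines). Binding measured on fresh or frozen membranes of stably transfected LM(tk-) mouse fibroblasts carrying cloned human GAL3, in pH 7.4 HEPES buffer; values derived by nonlinear regression.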

The mark [3] stands for this setting: 5 mg/kg p.o., one hour before test.

Marks after values point to notes of the source that are not given here.

With `CNC1=Nc2ccc(Cl)cc2C(c2ccccc2)=[N+]([O-])C1` [Chlordiazepoxide, chlordiazepoxide, reference compound], in assay [1], the “Grooming bouts” value was determined as 7.3 ± 1.3 and the “Squares Crossed” value amounted to 287 ± 28. This compound also yielded a Rearings in assay [2] (5 mg/kg i.p., 1 hour prior to testing) of 30 ± 2. In assay [2] (5 mg/kg i.p., 1 hour prior to testing, unfamiliar rats, 15 minute test), the “Social Interaction” value is listed as 188 ± 15^b sec. Besides, in assay [2] (setting [3]), the Grooming bouts is reported as 5.3 ± 0.7, the Rearing worked out at 35 ± 2 and the “Squares Crossed” value was determined as 265 ± 30. Besides, the “Social Interaction” value in assay [2] (5 mg/kg p.o., one hour before test, unfamiliar cage mates in a familiar arena) is recorded as 122 ± 18^S sec.
For `Cc1ccc(Nc2cc(N(C)C)nc(N3CCN(c4ncccc4C(F)(F)F)CC3)n2)cc1` [Example 88], the Ki – broadly, the equilibrium dissociation constant of an inhibitor or competing ligand from its target – was determined as 2190 nM on human GAL1 receptor, 355 nM on human GAL2 receptor and 39 nM on human GAL3 receptor.
